This note sets out measurements from publication PMC3834762 (British Journal of Pharmacology, 2013).

Positions count from the first letter of the chain named.

Holding throughout (format): cell-based
One assay deals with T1, 5‐HT3AT6'S receptors (Homo sapiens, UniProt P46098, T279S).
T1 sequence (P46098 24-478 T279S): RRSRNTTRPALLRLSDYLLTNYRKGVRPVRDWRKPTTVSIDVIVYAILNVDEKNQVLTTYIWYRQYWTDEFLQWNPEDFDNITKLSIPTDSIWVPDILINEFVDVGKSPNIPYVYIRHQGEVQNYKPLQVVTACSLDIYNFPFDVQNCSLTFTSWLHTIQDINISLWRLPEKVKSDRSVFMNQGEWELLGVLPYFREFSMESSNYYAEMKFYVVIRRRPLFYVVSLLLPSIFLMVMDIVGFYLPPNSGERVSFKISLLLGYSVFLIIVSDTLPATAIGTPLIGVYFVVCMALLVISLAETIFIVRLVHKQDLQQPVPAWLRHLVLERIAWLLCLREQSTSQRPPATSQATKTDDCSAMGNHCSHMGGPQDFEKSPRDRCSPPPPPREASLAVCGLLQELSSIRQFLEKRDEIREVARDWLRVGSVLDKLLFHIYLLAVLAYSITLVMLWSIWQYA
As to the kind of experiment: two‐electrode voltage clamp, 5‐HT3AT6'S mutant receptors in Xenopus oocytes. The settings on record: maximal current amplitude for the test ligand compared to 5‐HT.

For the next assay, the target named is T2, 5‐HT3A receptors (Homo sapiens, UniProt P46098).
T2 sequence (P46098 24-478): T1 sequence (P46098 24-478 T279S) with S256T
As to the kind of experiment: two‐electrode voltage clamp, wild type 5‐HT3A receptors in Xenopus oocytes.

The target in the next assay is T3, 5‐HT3AB receptors (Homo sapiens, UniProt O95264+P46098).
T3 sequence (P46098 24-478): T1 sequence (P46098 24-478 T279S) with S256T
T3 sequence (O95264 22-441): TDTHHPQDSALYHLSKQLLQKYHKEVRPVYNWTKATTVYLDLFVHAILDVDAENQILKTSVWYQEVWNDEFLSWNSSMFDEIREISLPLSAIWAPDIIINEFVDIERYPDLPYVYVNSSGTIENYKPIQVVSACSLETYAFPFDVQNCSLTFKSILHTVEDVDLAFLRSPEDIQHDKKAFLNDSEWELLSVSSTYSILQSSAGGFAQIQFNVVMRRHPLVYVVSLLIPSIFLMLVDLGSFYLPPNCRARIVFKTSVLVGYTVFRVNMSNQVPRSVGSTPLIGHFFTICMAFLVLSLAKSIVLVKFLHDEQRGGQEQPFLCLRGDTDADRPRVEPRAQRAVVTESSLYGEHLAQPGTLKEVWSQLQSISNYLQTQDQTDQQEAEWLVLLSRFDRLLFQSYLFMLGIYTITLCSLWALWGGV
Briefly: two‐electrode voltage clamp, wild type 5‐HT3AB receptors in Xenopus oocytes.

The target in the next assay is T4, 5‐HT3AT6'SB receptors (Homo sapiens, UniProt O95264+P46098, T279S).
T4 sequence (P46098 24-478 T279S): T1 sequence (P46098 24-478 T279S)
T4 sequence (O95264 22-441): T3 sequence (O95264 22-441)
Briefly: two‐electrode voltage clamp, 5‐HT3AT6'SB mutant receptors in Xenopus oocytes. As to conditions: maximal current amplitude for the test ligand compared to 5‐HT.

With `c1ccc2nc(N3CCNCC3)ccc2c1` [Quipazine], the Rmax at 5‐HT3AT6'S receptors is 0.9; on 5‐HT3AT6'SB receptors, 1.2. In addition, the agonist response result on 5‐HT3A receptors (5‐HT3A) and at 5‐HT3AB receptors was “too small to accurately determine functional parameters” in each case. Moreover, the “long‐lived inhibition of subsequent agonist responses” value at 5‐HT3A receptors (wild type 5‐HT3A and 5‐HT3AB receptors) is on record as > 20 min.
